Source: US20120283403A1, “Phenylboronic Acid Monomer and Phenylboronic Acid Polymer” (National Institute for Materials Science, priority 2010, published 2012)

From the text: Subsequently, for the sample 1, the comparative sample 1 and the comparative sample 2, the relationships between glucose concentrations and apparent changes in pKa were derived by acid-base titration under various glucose concentration conditions (0 g/L, 1 g/L, 3 g/L, 5 g/L, and 10 g/L).

## C=CC(=O)NCCNC(=O)c1ccc(B(O)O)cc1F [sample 1, 4-(2-acrylamideethylcarbamoyl)-3-fulorophenylboronic acid]
All glucose concentrations (0, 1, 3, 5 and 10 g/L), FIG. 2, samples a1 to a5
  apparent pKa: < 7.4
Compared with comparative samples 1 and 2, glucose 0 to 10 g/L
  degrees of decrease in pKa according to the increase in the concentrations of glucose: excellent
